Assay results published in patent US20080167277A1, “METHODS OF TREATING SKIN DISORDERS WITH CAFFEIC ACID ANALOGS” (priority 2006, published 2008).

Tested on: psoriasis
Experiment: Topical dosage form of CAPE in petroleum jelly for treating psoriasis
Assay type: in vivo
Conditions: 10.0 weight percent in petroleum jelly
Source text: In some embodiments, the topical dosage forms may contain 0.5 weight percent to 20.0 weight percent of the compounds described herein. […] The weight percent of the compounds described herein within the topical dosage forms may range from 1.0 weight percent to 15.0 weight percent or 5.0 weight percent to 11.0 weight percent. Treatment regimes with the topical dosage forms may occur daily, twice daily, three times daily or four times daily for durations, for example, of three weeks or four weeks or until symptoms are no longer present.

SMILES: O=C(/C=C/c1ccc(O)c(O)c1)OCCc1ccccc1 [CAPE, caffeic acid phenethyl ester]
- effectiveness for treating psoriasis: effective
